The results in this text go back to patent US8426220B2, “Utilization of shield effect for dopamine detection and reagent development” (National Tsing Hua University, priority 2009, dated 2013).

The target of assay [1] is T1, hMAO B-GFP fusion protein (medium form of dopamine probe) in PC12 cells (Homo sapiens, UniProt P27338).
T1 construct: expressed in transfected cells
In words: MAO substrates MPTP and L-DOPA added to cells expressing dopamine probe elicit GFP fluorescence. Format: cell-based. Conditions: for GFP fluorescence after drug treatment: PC12 cells expressing medium form of dopamine probe; for green fluorescence (release from shield effect) after treatment: preliminary experiment, excitation of 488 nm laser, a part of the cells. The source says:
Additions of MAO Substrates 1-methyl-4-phenyl-1,2,3,6-tetrahydropyridine (MPTP) and L-DOPA in Cells Expressing Dopamine Probe Elicit GFP Fluorescence
MPTP is a widely used compound as an MAO substrate. It is also used for measuring the enzyme activity of the MAO protein. The L-DOPA is a stable dopamine precursor and has been extensively used for the treatment of Parkinson's disease. After entering the cell, it could be converted into dopamine by the dopa decarboxylase. Both of the drugs could bind to dopamine transporter and be transported into the PC12 cells.

The subject of the next assay is E. coli strain BL21. In words: GFP fluorescent signal of dopamine probes and controls in living E. coli BL21, confocal microscopy. In kind it is cell-based. Conditions: living E. coli BL21 after IPTG induction, excited by 488 nm laser, no substrate.
For a further assay, the system named is PC12 cell line. In words: GFP fluorescent signal of dopamine probes and controls in PC12 stable cell lines, confocal microscopy. Format: cell-based, rat. Conditions: excited by 488 nm laser, no substrate. The source says:
The rat pheochromocytoma cells (PC12 cell) were transfected with sequences of GFP, ΔhMAO B, and the probe protein through vector containing internal ribosome entry site (IRES). After antibiotic selection for more than a month, cell lines consistently expressing dopamine probe proteins were successfully established. The cell lines were detected by GFP antibody in Western blotting and observed by confocal microscopy.

Setting [2] is: differentiated PC12 cell line (NGF).
Where [3] appears, read: undifferentiated PC12 cell line.

As to `N[C@@H](Cc1ccc(O)c(O)c1)C(=O)O` [L-DOPA], the “GFP fluorescence after drug treatment” value in assay [1] (100 μM L-dopa) was “strong GFP fluorescence”. In addition, in assay [1], the “green fluorescence (release from shield effect) after treatment” value is recorded as “green fluorescence in those cells was successfully emitted”.

In the case of “GFP: full-length green fluorescent protein, SEQ ID NO: 2, control [reference compound]”, the GFP fluorescent signal entry in the assay on E. coli strain BL21 is listed as “Evident expression of green fluorescent signal”; in the assay on E. coli strain BL21 (listed as full length GFP) it was “clear fluorescent signals”; in the assay on PC12 cell line (setting [2]), “clear fluorescent signals”; in the assay on PC12 cell line (setting [3]), “clear fluorescent signals”.

For `CN1CC=C(c2ccccc2)CC1` [MPTP, 1-methyl-4-phenyl-1,2,3,6-tetrahydropyridine], in assay [1] (1 mM MPTP), the “GFP fluorescence after drug treatment” value is “strong GFP fluorescence”. Besides, the “green fluorescence (release from shield effect) after treatment” value in assay [1] is “green fluorescence in those cells was successfully emitted”.

B1: ΔhMAO B (protein)
chain: MSNKCDVVVVGGGISGMAAAKLLHDSGLNVVVLEARDRVGGRTYTLRNQKVKYVDLGGSYVGPTQNRILRLAKELGLETYKVNEVERLIHHVKGKSYPFRGPFPPVWNPITYLDHNNFWRTMDDMGREIPSDAPWKAPLAEEWDNMTMKELLDKLCWTESAKQLATLFVNLCVTAETHEVSALWFLWYVKQCGGTTRIISTTNGGQERKFVGGSGQVSERIMDLLGDRVKLERPVIYIDQTRENVLVETLNHEMYEAKYVISAIPPTLGMKIHFNPPLPMMRNQMITRVPLGSVIKCIVYYKEPFWRKKDYCGTMIIDGEEAPVAYTLDDTKPEGNYAAIMGFILAHKARKLARLTKEERLKKLCELYAKVLGSLEALEPVHYEEKNWCEEQYSGGCYTTYFPPGILTQYGRVLRQPVDRIYFAGTETATHWSGYMEGAVEAGERAAREILHAMGKIPEDEI
In the case of B1, the figures for the GFP fluorescent signal entry with E. coli strain BL21, in the assay on PC12 cell line (setting [2]) and in the assay on PC12 cell line (setting [3]) were “no fluorescent signal”, “no signal” and “no signal”, respectively.

B2: hMAO B: the complete human monoamine oxidase B, SEQ ID NO: 1, control (protein, listed as Homo sapiens)
chain: MSNKCDVVVVGGGISGMAAAKLLHDSGLNVVVLEARDRVGGRTYTLRNQKVKYVDLGGSYVGPTQNRILRLAKELGLETYKVNEVERLIHHVKGKSYPFRGPFPPVWNPITYLDHNNFWRTMDDMGREIPSDAPWKAPLAEEWDNMTMKELLDKLCWTESAKQLATLFVNLCVTAETHEVSALWFLWYVKQCGGTTRIISTTNGGQERKFVGGSGQVSERIMDLLGDRVKLERPVIYIDQTRENVLVETLNHEMYEAKYVISAIPPTLGMKIHFNPPLPMMRNQMITRVPLGSVIKCIVYYKEPFWRKKDYCGTMIIDGEEAPVAYTLDDTKPEGNYAAIMGFILAHKARKLARLTKEERLKKLCELYAKVLGSLEALEPVHYEEKNWCEEQYSGGCYTTYFPPGILTQYGRVLRQPVDRIYFAGTETATHWSGYMEGAVEAGERAAREILHAMGKIPEDEIWQSEPESVDVPAQPITTTFLERHLPSVPGLLRLIGLTTIFSATALGFLAHKRGLLVRV
modifications: mat_peptide (1)..(520)
B2: the GFP fluorescent signal result in the assay on E. coli strain BL21 is recorded as “no fluorescent signal”.
